# Assay results as given in patent US20200030355A1, “COMBINATION THERAPY FOR TREATING CANCER” (Epizyme, Inc., priority 2014, published 2020).
# Counter-ions that a name gives are not always drawn.
# What was measured:
# Type in all cases: cell-based, human
# MOLM-13 (MLL-AF9) = assay: Combination proliferation study with Compound A2 (ATP/CellTiter-Glo, Chou-Talalay combination index); conditions: for Combination of Compound A2 and anti-cancer agent, MOLM-13: 7 Day Cotreatment
# Experimental: (§1) The acute myelogenous leukemia cell lines MV4-11 (MLL-AF4) and MOLM-13 (MLL-AF9) were obtained from American Type Culture Collection (ATCC; Rockville, Md.) and Deutsche Sammlung von Mikroorganismen and Zellkulturen (DSMZ; Braunschweig, Germany) respectively.
# (§2) Studies were performed using MLL-rearranged cell lines in vitro to evaluate the anti-proliferative effect of a combination of two agents together on cell growth. Initial proliferation studies were performed to determine the IC50 of a given compound in each cell line. The cell counts were measured by ATP quantitation using the Promega Cell Titer Glo kit and luminescence values corresponded to the amount of ATP in a given well.
# (§3) Compounds were evaluated for synergy in the co-treatment phase by testing the compounds in a concentration range which was bracketed around their IC50 values. The compounds were plated to a 96 well plate in a matrix format (FIG. 3) which includes increasing concentrations of each drug in the combination in a constant ratio, in addition to the effect of each compound alone in the study. Cells were seeded and grown in the log-linear phase for 3 or 7 days in the co-treatment phase. Minimum inhibition (DMSO alone) controls were used in each plate to calculate fraction affected (Fa) of a test well. DMSO concentration was kept at 0.1% v/v.
# (§4) The drug combination analysis was performed utilizing the Chou-Talalay method Synergy was determined using the software package Calcusyn by Biosoft. The combination index (CI) is a quantitative term used to describe the level of synergy or antagonism in a given test system. A combination index less than one indicates synergy, and a CI greater than one indicates antagonism. Further, strong synergism is achieved when the CI value falls below 0.3.
# (§5) Graphs representing values of combination index (CI) versus Fractional effect (Fa) known as Fa-CI plots were generated and synergy was evaluated. Drug synergy was statistically defined by CI values less than 1, antagonism by CI>1 and additive effect by CI equal to 1.
# Graphs representing values of combination index (CI) versus Fractional effect (Fa) known as Fa-CI plots were generated and synergy was evaluated. Drug synergy was statistically defined by CI values less than 1, antagonism by CI>1 and additive effect by CI equal to 1. […]
# Cell viability was measured via ATP content using CellTiter-Glo® (Promega).
# Proliferation studies were performed using MOLM-13, MV4-11 and SKM-1 cell lines in vitro to evaluate the cancer cell killing effect of a combination of two agents together on cell growth. Initial proliferation studies were performed to determine the IC50 values of a given compound in each cell line. The cell counts were measured by ATP quantitation using the Promega Cell Titer Glo kit and luminescence values correspond to the amount of ATP in a given well. […]
# Compounds evaluated for synergy in the co-treatment phase were tested in a range which was bracketed around the IC50's.
# MV4-11 (MLL-AF4) = assay: as above; conditions: for Combination of Compound A2 and anti-cancer agent, MV4-11: 7 Day Cotreatment; for Combination with Compound A2, MV4-11 (MLL-AF4): 7 Day Cotreatment Model, Table 4; for Combination with Compound A2, MV4-111 MLL-AF4: Table 2, Example 3
# Experimental: as §1, §2, §3, §4, §5, §5
# The HP-D300 digital dispenser (Tecan) was used to dispense compounds in a combinatorial matrix. […] Cell viability was measured via ATP content using CellTiter-Glo® (Promega).
# Viability was determined using CellTiter-Glo® (Promega).
# Proliferation studies were performed using MOLM-13, MV4-11 and SKM-1 cell lines in vitro to evaluate the cancer cell killing effect of a combination of two agents together on cell growth. Initial proliferation studies were performed to determine the IC50 values of a given compound in each cell line. The cell counts were measured by ATP quantitation using the Promega Cell Titer Glo kit and luminescence values correspond to the amount of ATP in a given well.
# These studies were performed to evaluate both the combinatorial effect of compounds on cell killing and the durability of the effect by washing out one of the agents.
# Compounds evaluated for synergy in the co-treatment phase were tested in a range which was bracketed around the IC50's. The compounds were plated to a 96 well plate in a matrix format which includes increasing concentrations of each drug in the combination in a constant ratio, in addition to the effect of each compound alone in the study.
# SKM-1 cells = assay: EPZ-5676 300 nM 7-day pre-treatment, then second compound 72 hours, ATPLite, IC50 shift (Example 6); conditions: SKM-1 cells; 300 nM EPZ-5676 or DMSO 7-day pre-treatment, then 2nd compound 72 hours, ATPLite; Synergy = IC50 of 2nd compound decreased by 2-fold or more vs DMSO control
# Experimental: Cells were then equilibrated in incubators for 24 hours before treatment with a second compound. Treated assay plates were incubated with a second compound for 72 hours. After this time, plates were developed for endpoint analysis using ATPLite to measure ATP content, which is used as an indicator of cell viability.
# “N/D” means that IC50 of the second compound could not be determined for both conditions.
# [1] = 7 Day Cotreatment Model, Table 4
SMILES,"Combination with Compound A2, MOLM-13 (MLL-AF9) (MOLM-13 (MLL-AF9); [1])","Combination with Compound A2, MV4-11 (MLL-AF4) (MV4-11 (MLL-AF4))",other results
N[C@@H]1C[C@H]1c1ccccc1 (racemic) [Tranylcypromine],Strong Synergy,Synergy (Drug synergy was statistically defined by CI values less than 1),"Combination of Compound A2 and anti-cancer agent, MOLM-13 (MOLM-13 (MLL-AF9)): synergy; Combination of Compound A2 and anti-cancer agent, MV4-11 (MV4-11 (MLL-AF4)): synergy"
CC1(C)CCC(CN2CCN(c3ccc(C(=O)NS(=O)(=O)c4ccc(NCC5CCOCC5)c([N+](=O)[O-])c4)c(Oc4cnc5[nH]ccc5c4)c3)CC2)=C(c2ccc(Cl)cc2)C1 [ABT-199],Additive --> Synergy,Synergy (Drug synergy was statistically defined by CI values less than 1),
CN(C)CC[C@H](CSc1ccccc1)Nc1ccc(S(=O)(=O)NC(=O)c2ccc(N3CCN(Cc4ccccc4-c4ccc(Cl)cc4)CC3)cc2)cc1[N+](=O)[O-] [ABT-737],,,SKM-1 (summary of combination study: EPZ-5676 + 2nd compound) (SKM-1 cells): Synergy (considered synergistic if the IC50 value of the second compound decreased by 2-fold or more when EPZ-5676 was added as compared to the DMSO control)
COc1ccc(-c2ccc3c(N4CCOC[C@@H]4C)nc(N4CCOC[C@@H]4C)nc3n2)cc1CO [AZD 8055],,,SKM-1 (summary of combination study: EPZ-5676 + 2nd compound) (SKM-1 cells): Synergy (considered synergistic if the IC50 value of the second compound decreased by 2-fold or more when EPZ-5676 was added as compared to the DMSO control)
O=C(Nc1cccc(Nc2ncc(Br)c(NCCc3cnc[nH]3)n2)c1)N1CCCC1 [BX-912],,,SKM-1 (summary of combination study: EPZ-5676 + 2nd compound) (SKM-1 cells): Synergy (considered synergistic if the IC50 value of the second compound decreased by 2-fold or more when EPZ-5676 was added as compared to the DMSO control)
Nc1nc(Cl)nc2c1ncn2[C@@H]1O[C@H](CO)[C@@H](O)[C@@H]1F [Clofarabine],Synergy (Drug synergy was statistically defined by CI values less than 1),Synergy (Drug synergy was statistically defined by CI values less than 1),
Nc1ncn([C@H]2C[C@H](O)[C@@H](CO)O2)c(=O)n1 [Decitabine],Synergy (Drug synergy was statistically defined by CI values less than 1),Synergy (Drug synergy was statistically defined by CI values less than 1),"Combination with Compound A2, MOLM-13 (MLL-AF9) (MOLM-13 (MLL-AF9); Table 2, Example 3): Synergy (Drug synergy was statistically defined by CI values less than 1); Combination with Compound A2, MV4-111 MLL-AF4 (MV4-11 (MLL-AF4)): Synergy (Drug synergy was statistically defined by CI values less than 1)"
C#Cc1cccc(Nc2ncnc3cc(OCCOC)c(OCCOC)cc23)c1 [Erlotinib Hydrochloride],,,SKM-1 (summary of combination study: EPZ-5676 + 2nd compound) (SKM-1 cells): Synergy (considered synergistic if the IC50 value of the second compound decreased by 2-fold or more when EPZ-5676 was added as compared to the DMSO control)
NC(=O)NO [Hydroxyurea],Synergy (Drug synergy was statistically defined by CI values less than 1),Synergy (Drug synergy was statistically defined by CI values less than 1),
Cc1sc2c(c1C)C(c1ccc(Cl)cc1)=N[C@@H](CC(=O)OC(C)(C)C)c1nnc(C)n1-2 [JQ1],Additive (additive effect by CI equal to 1),Additive (additive effect by CI equal to 1),"Combination with Compound A2, MOLM-13 (MLL-AF9) (MOLM-13 (MLL-AF9); Table 2, Example 3): Additive (additive effect by CI equal to 1); Combination with Compound A2, MV4-111 MLL-AF4 (MV4-11 (MLL-AF4)): Additive (additive effect by CI equal to 1)"
CCCc1cc2c(N3CCN(C4=NCC(C)(C)S4)CC3)ncnc2s1 [Menin-MLL inhibitor MI-2],Synergy (Drug synergy was statistically defined by CI values less than 1),Synergy (Drug synergy was statistically defined by CI values less than 1),
S=c1nc[nH]c2nc[nH]c12 [Mercaptopurine],Additive --> Synergy,Additive (additive effect by CI equal to 1),
CN(Cc1cnc2nc(N)nc(N)c2n1)c1ccc(C(=O)N[C@@H](CCC(=O)O)C(=O)O)cc1 [Methotrexate],Additive (additive effect by CI equal to 1),Additive (additive effect by CI equal to 1),
O=C1c2c(O)ccc(O)c2C(=O)c2c(NCCNCCO)ccc(NCCNCCO)c21 [Mitoxantrone],Synergy (Drug synergy was statistically defined by CI values less than 1),Synergy (Drug synergy was statistically defined by CI values less than 1),"Combination of Compound A2 and anti-cancer agent, MV4-11 (MV4-11 (MLL-AF4)): Synergy (A combination index less than one indicates synergy)"
CC1(C)CCC(c2ccc(Cl)cc2)=C(CN2CCN(c3ccc(C(=O)NS(=O)(=O)c4ccc(N[C@H](CCN5CCOCC5)CSc5ccccc5)c(S(=O)(=O)C(F)(F)F)c4)cc3)CC2)C1 [Navitoclax],Synergy (Drug synergy was statistically defined by CI values less than 1),Synergy (Drug synergy was statistically defined by CI values less than 1),"Combination of Compound A2 and anti-cancer agent, MOLM-13 (MOLM-13 (MLL-AF9)): synergy; Combination of Compound A2 and anti-cancer agent, MV4-11 (MV4-11 (MLL-AF4)): synergy"
CC(=O)c1c(C)c2cnc(Nc3ccc(N4CCNCC4)cn3)nc2n(C2CCCC2)c1=O [Palbociclib],Synergy (Drug synergy was statistically defined by CI values less than 1),Synergy (Drug synergy was statistically defined by CI values less than 1),
Cc1[nH]c2ccccc2c1CCNCc1ccc(/C=C/C(=O)NO)cc1 [Panobinostat],Synergy (Drug synergy was statistically defined by CI values less than 1),Antagonistic (antagonism by CI>1),
CC(C)(C)c1cc(NC(=O)Nc2ccc(-c3cn4c(n3)sc3cc(OCCN5CCOCC5)ccc34)cc2)no1 [Quizartinib],Synergy (Drug synergy was statistically defined by CI values less than 1),,"Combination of Compound A2 and anti-cancer agent, MV4-11 (MV4-11 (MLL-AF4)): synergy"
CC[C@]1(O)C[C@H]2CN(CCc3c([nH]c4ccccc34)[C@@](C(=O)OC)(c3cc4c(cc3OC)N(C=O)[C@H]3[C@@](O)(C(=O)OC)[C@H](OC(C)=O)[C@]5(CC)C=CCN6CC[C@]43[C@@H]65)C2)C1 [Vincristine],Additive (additive effect by CI equal to 1),Additive (additive effect by CI equal to 1),
O=C(CCCCCCC(=O)Nc1ccccc1)NO [Vorinostat],Additive/Synergy,Antagonistic (antagonism by CI>1),
